{
  "source": "patent US9409908B2",
  "about": "(priority 2012, dated 2016)",
  "key": {"[1]": {"target": "purified human Factor XIa (Homo sapiens (Human), UniProt P03951)", "sequence (P03951 whole entry, looked up)": "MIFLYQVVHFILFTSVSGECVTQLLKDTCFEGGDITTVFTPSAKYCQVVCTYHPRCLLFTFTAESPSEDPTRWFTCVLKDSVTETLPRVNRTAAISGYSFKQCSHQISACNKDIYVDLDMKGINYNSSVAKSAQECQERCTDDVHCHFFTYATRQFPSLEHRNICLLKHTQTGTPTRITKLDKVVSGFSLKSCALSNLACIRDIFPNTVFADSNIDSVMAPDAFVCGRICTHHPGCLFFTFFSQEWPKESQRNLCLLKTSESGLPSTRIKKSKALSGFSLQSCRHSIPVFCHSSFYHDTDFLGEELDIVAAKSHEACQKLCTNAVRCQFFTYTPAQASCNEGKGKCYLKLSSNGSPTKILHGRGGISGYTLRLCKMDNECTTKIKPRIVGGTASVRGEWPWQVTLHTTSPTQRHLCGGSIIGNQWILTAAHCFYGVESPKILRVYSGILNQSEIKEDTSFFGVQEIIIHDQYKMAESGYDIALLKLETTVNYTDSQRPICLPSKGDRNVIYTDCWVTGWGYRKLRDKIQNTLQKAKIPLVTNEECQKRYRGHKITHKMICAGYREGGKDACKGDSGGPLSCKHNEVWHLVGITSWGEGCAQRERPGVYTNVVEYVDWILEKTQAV", "sequence (P03951 whole entry partner, looked up)": "as the sequence (P03951 whole entry, looked up) above", "experiment": "biochemical", "format": "biochemical", "conditions": "read-out: Factor XIa Ki"}, "[2]": {"target": "purified human plasma kallikrein (Homo sapiens (Human), UniProt P03952)", "sequence (P03952 whole entry, looked up)": "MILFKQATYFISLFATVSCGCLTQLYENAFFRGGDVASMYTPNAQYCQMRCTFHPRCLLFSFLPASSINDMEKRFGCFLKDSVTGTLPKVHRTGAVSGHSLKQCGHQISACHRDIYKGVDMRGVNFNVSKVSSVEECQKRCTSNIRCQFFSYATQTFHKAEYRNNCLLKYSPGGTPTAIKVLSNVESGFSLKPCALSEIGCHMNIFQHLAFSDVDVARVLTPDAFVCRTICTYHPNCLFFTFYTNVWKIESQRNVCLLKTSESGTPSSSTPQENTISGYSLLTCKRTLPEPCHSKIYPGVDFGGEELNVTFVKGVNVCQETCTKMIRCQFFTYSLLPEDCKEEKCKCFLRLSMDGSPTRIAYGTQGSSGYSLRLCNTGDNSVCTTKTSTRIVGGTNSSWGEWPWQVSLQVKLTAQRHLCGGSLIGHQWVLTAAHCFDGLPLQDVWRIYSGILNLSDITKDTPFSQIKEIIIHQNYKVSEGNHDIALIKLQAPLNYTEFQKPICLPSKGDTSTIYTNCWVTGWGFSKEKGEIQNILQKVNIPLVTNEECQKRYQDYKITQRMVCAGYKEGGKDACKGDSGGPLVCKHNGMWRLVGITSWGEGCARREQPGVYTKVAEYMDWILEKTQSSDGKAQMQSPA", "sequence (P03952 whole entry partner, looked up)": "as the sequence (P03952 whole entry, looked up) above", "experiment": "biochemical", "format": "biochemical", "conditions": "read-out: Plasma Kallikrein Ki"}},
  "note": "Counter-ions that a name gives are not always drawn.",
  "data": [
    {"smiles": "Cc1nnc(Nc2ccc3c(c2)NC(=O)[C@H](C)CCC[C@H](N2CCC(c4c(F)ccc(Cl)c4F)=CC2=O)c2cc-3ccn2)o1", "note": "[Example 21, (10R,14S)-14-[4-(3-Chloro-2,6-difluorophenyl)-6-oxo-1,2,3,6-tetrahydropyridin-1-yl]-10-methyl-5-[(5-methyl-1,3,4-oxadiazol-2-yl)amino]-8,16-diazatricyclo[13.3.1.0^2,7]nonadeca-1(19),2(7),3,5,15,17-hexaen-9-one, TFA salt]", "values": [
      {"measurement": "Ki", "setting": "[1]", "result": 0.46, "unit": "nM"},
      {"measurement": "Ki", "setting": "[2]", "result": 1, "unit": "nM"}
    ]},
    {"smiles": "COC(=O)Nc1ccc2c(c1)NC(=O)[C@H](C)CC(=O)C[C@H](N1CCC(c3c(F)ccc(Cl)c3F)=CC1=O)c1cc-2ccn1", "note": "[Example 22, Methyl N-[(10R,14S)-14-[4-(3-chloro-2,6-difluorophenyl)-6-oxo-1,2,3,6-tetrahydropyridin-1-yl]-10-methyl-9,12-dioxo-8,16-diazatricyclo[13.3.1.0^2,7]nonadeca-1(19),2,4,6,15,17-hexaen-5-yl]carbamate, TFA salt]", "values": [
      {"measurement": "Ki", "setting": "[1]", "result": "> 438", "unit": "nM"},
      {"measurement": "Ki", "setting": "[2]", "result": 352, "unit": "nM"}
    ]},
    {"smiles": "COC(=O)Nc1ccc2c(c1)C(=O)NCCCC[C@H](N1CCC(c3c(F)ccc(Cl)c3F)=CC1=O)c1cc-2ccn1", "note": "[Example 24, Methyl N-[(14S)-14-[4-(3-chloro-2,6-difluorophenyl)-6-oxo-1,2,3,6-tetrahydropyridin-1-yl]-8-oxo-9,16-diazatricyclo[13.3.1.0^2,7]nonadeca-1(19),2(7),3,5,15,17-hexaen-5-yl]carbamate, TFA salt]", "values": [
      {"measurement": "Ki", "setting": "[1]", "result": 270, "unit": "nM"},
      {"measurement": "Ki", "setting": "[2]", "result": 214, "unit": "nM"}
    ]},
    {"smiles": "COC(=O)Nc1ccc2c(c1)NC(=O)[C@H](C)CCC[C@H](N1CCC(c3c(C(F)(F)F)ccc(Cl)c3F)=CC1=O)c1cc-2ccn1", "note": "[Example 25, Methyl N-[(10R,14S)-14-{4-[3-chloro-2-fluoro-6-(trifluoromethyl)phenyl]-6-oxo-1,2,3,6-tetrahydropyridin-1-yl}-10-methyl-9-oxo-8,16-diazatricyclo[13.3.1.0^2,7]nonadeca-1(19),2,4,6,15,17-hexaen-5-yl]carbamate, TFA salt]", "values": [
      {"measurement": "Ki", "setting": "[1]", "result": 0.1, "unit": "nM"},
      {"measurement": "Ki", "setting": "[2]", "result": 12, "unit": "nM"}
    ]},
    {"smiles": "COC(=O)Nc1ccc2c(c1)NC(=O)[C@H](C)CCC[C@H](N1CCC(c3c(C#N)ccc(Cl)c3F)=CC1=O)c1cc-2cc(OC)n1", "note": "[Example 26, Methyl N-[(10R,14S)-14-[4-(3-chloro-6-cyano-2-fluorophenyl)-6-oxo-1,2,3,6-tetrahydropyridin-1-yl]-17-methoxy-10-methyl-9-oxo-8,16-diazatricyclo[13.3.1.0^2,7]nonadeca-1(18),2,4,6,15(19),16-hexaen-5-yl]carbamate]", "values": [
      {"measurement": "Ki", "setting": "[1]", "result": 0.09, "unit": "nM"},
      {"measurement": "Ki", "setting": "[2]", "result": 1, "unit": "nM"}
    ]},
    {"smiles": "C[C@@H]1CCC[C@H](N2CCC(c3c(Br)ccc(Cl)c3F)=CC2=O)c2cc(ccn2)-c2ccc(C(=O)O)cc2NC1=O", "note": "[Example 28, (14S)-14-[4-(6-Bromo-3-chloro-2-fluorophenyl)-6-oxo-1,2,3,6-tetrahydropyridin-1-yl]-10-methyl-9-oxo-8,16-diazatricyclo[13.3.1.0^2,7]nonadeca-1(19),2(7),3,5,15,17-hexaene-5-carboxylic acid, TFA salt]", "values": [
      {"measurement": "Ki", "setting": "[1]", "result": "> 443", "unit": "nM"},
      {"measurement": "Ki", "setting": "[2]", "result": 196, "unit": "nM"}
    ]},
    {"smiles": "C[C@@H]1CCC[C@H](N2CCC(c3c(Br)ccc(Cl)c3F)=CC2=O)c2cc(ccn2)-c2ccc(C(N)=O)cc2NC1=O", "note": "[Example 29, (14S)-14-[4-(6-Bromo-3-chloro-2-fluorophenyl)-6-oxo-1,2,3,6-tetrahydropyridin-1-yl]-10-methyl-9-oxo-8,16-diazatricyclo[13.3.1.0^2,7]nonadeca-1(19),2(7),3,5,15,17-hexaene-5-carboxamide, TFA salt]", "values": [
      {"measurement": "Ki", "setting": "[1]", "result": 2.88, "unit": "nM"},
      {"measurement": "Ki", "setting": "[2]", "result": 3, "unit": "nM"}
    ]},
    {"smiles": "COC(=O)Nc1ccc2c(c1)NC(=O)[C@H](C)CCC[C@H](N1CCC(c3c(C#N)ccc(Cl)c3F)=CC1=O)c1cc-2cc(=O)[nH]1", "note": "[Example 30, Methyl N-[(10R,14S)-14-[4-(3-chloro-6-cyano-2-fluorophenyl)-6-oxo-1,2,3,6-tetrahydropyridin-1-yl]-10-methyl-9,17-dioxo-8,16-diazatricyclo[13.3.1.0^2,7]nonadeca-1(18),2,4,6,15(19)-pentaen-5-yl]carbamate, TFA salt]", "values": [
      {"measurement": "Ki", "setting": "[1]", "result": 0.21, "unit": "nM"},
      {"measurement": "Ki", "setting": "[2]", "result": 3, "unit": "nM"}
    ]},
    {"smiles": "COC(=O)Nc1ccc2c(c1)NC(=O)[C@H](C)CCC[C@H](N1CCC(c3c(OC(F)F)ccc(Cl)c3F)=CC1=O)c1ccnc-2c1", "note": "[Example 31, Methyl N-[(10R,14S)-14-{4-[3-chloro-6-(difluoromethoxy)-2-fluorophenyl]-6-oxo-1,2,3,6-tetrahydropyridin-1-yl}-10-methyl-9-oxo-8,18-diazatricyclo[13.3.1.0^2,7]nonadeca-1(19),2,4,6,15,17-hexaen-5-yl]carbamate, TFA salt]", "values": [
      {"measurement": "Ki", "setting": "[1]", "result": 0.04, "unit": "nM"},
      {"measurement": "Ki", "setting": "[2]", "result": 3, "unit": "nM"}
    ]},
    {"smiles": "COC(=O)Nc1ccc2c(c1)NC(=O)[C@H](C)CCC[C@H](N1CCC(c3c(OC(F)F)ccc(Cl)c3F)=CC1=O)c1cc-2ccn1", "note": "[Example 32, Methyl N-[(10R,14S)-14-{4-[3-chloro-6-(difluoromethoxy)-2-fluorophenyl]-6-oxo-1,2,3,6-tetrahydropyridin-1-yl}-10-methyl-9-oxo-8,16-diazatricyclo[13.3.1.0^2,7]nonadeca-1(19),2,4,6,15,17-hexaen-5-yl]carbamate, TFA salt]", "values": [
      {"measurement": "Ki", "setting": "[1]", "result": 0.06, "unit": "nM"},
      {"measurement": "Ki", "setting": "[2]", "result": 6, "unit": "nM"}
    ]},
    {"smiles": "C[C@@H]1CCC[C@H](N2CCC(c3c(C#N)ccc(Cl)c3F)=CC2=O)c2cc(ccn2)-c2ccc(C(N)=O)cc2NC1=O", "note": "[Example 33, (10R,14S)-14-[4-(3-Chloro-6-cyano-2-fluorophenyl)-6-oxo-1,2,3,6-tetrahydropyridin-1-yl]-10-methyl-9-oxo-8,16-diazatricyclo[13.3.1.0^2,7]nonadeca-1(19),2,4,6,15,17-hexaene-5-carboxamide, TFA salt]", "values": [
      {"measurement": "Ki", "setting": "[1]", "result": 2.02, "unit": "nM"},
      {"measurement": "Ki", "setting": "[2]", "result": 3, "unit": "nM"}
    ]},
    {"smiles": "COC(=O)Nc1ccc2c(c1)NC(=O)[C@H](C)CCC[C@H](N1CCC(c3cc(Cl)ccc3C(F)(F)F)=CC1=O)c1cc-2ccn1", "note": "[Example 36, Methyl N-[(10R,14S)-14-{4-[5-chloro-2-(trifluoromethyl)phenyl]-6-oxo-1,2,3,6-tetrahydropyridin-1-yl}-10-methyl-9-oxo-8,16-diazatricyclo[13.3.1.0^2,7]nonadeca-1(19),2,4,6,15,17-hexaen-5-yl]carbamate, TFA salt]", "values": [
      {"measurement": "Ki", "setting": "[1]", "result": 0.09, "unit": "nM"},
      {"measurement": "Ki", "setting": "[2]", "result": 8, "unit": "nM"}
    ]},
    {"smiles": "Cc1nnc(Nc2ccc3c(c2)NC(=O)[C@H](C)CCC[C@H](N2CCC(c4c(F)ccc(Cl)c4F)=CC2=O)c2ccnc-3c2)o1", "note": "[Example 37, (10R,14S)-14-[4-(3-Chloro-2,6-difluorophenyl)-6-oxo-1,2,3,6-tetrahydropyridin-1-yl]-10-methyl-5-[(5-methyl-1,3,4-oxadiazol-2-yl)amino]-8,18-diazatricyclo[13.3.1.0^2,7]nonadeca-1(19),2(7),3,5,15,17-hexaen-9-one, TFA salt]", "values": [
      {"measurement": "Ki", "setting": "[1]", "result": 0.87, "unit": "nM"},
      {"measurement": "Ki", "setting": "[2]", "result": 1, "unit": "nM"}
    ]},
    {"smiles": "CC1CCC[C@H](N2CCC(c3c(Br)ccc(Cl)c3F)=CC2=O)c2cc(ccn2)-c2ccc(-c3nnc[nH]3)cc2NC1=O", "note": "(stereo partly drawn) [Example 38, (14S)-14-[4-(6-Bromo-3-chloro-2-fluorophenyl)-6-oxo-1,2,3,6-tetrahydropyridin-1-yl]-10-methyl-5-(4H-1,2,4-triazol-3-yl)-8,16-diazatricyclo[13.3.1.0^2,7]nonadeca-1(19),2(7),3,5,15,17-hexaen-9-one, TFA salt]", "values": [
      {"measurement": "Ki", "setting": "[1]", "result": 2.77, "unit": "nM"},
      {"measurement": "Ki", "setting": "[2]", "result": 6, "unit": "nM"}
    ]},
    {"smiles": "C[C@@H]1CCC[C@H](N2CCC(c3c(F)ccc(Cl)c3F)=CC2=O)c2cc(ccn2)-c2ccc(Nc3nnc(C4CC4)o3)cc2NC1=O", "note": "[Example 39, (10R,14S)-14-[4-(3-Chloro-2,6-difluorophenyl)-6-oxo-1,2,3,6-tetrahydropyridin-1-yl]-5-[(5-cyclopropyl-1,3,4-oxadiazol-2-yl)amino]-10-methyl-8,16-diazatricyclo[13.3.1.0^2,7]nonadeca-1(19),2(7),3,5,15,17-hexaen-9-one, TFA salt]", "values": [
      {"measurement": "Ki", "setting": "[1]", "result": 0.67, "unit": "nM"},
      {"measurement": "Ki", "setting": "[2]", "result": 2, "unit": "nM"}
    ]},
    {"smiles": "COCc1nnc(Nc2ccc3c(c2)NC(=O)[C@H](C)CCC[C@H](N2CCC(c4c(F)ccc(Cl)c4F)=CC2=O)c2cc-3ccn2)o1", "note": "[Example 41, (10R,14S)-14-[4-(3-Chloro-2,6-difluorophenyl)-6-oxo-1,2,3,6-tetrahydropyridin-1-yl]-5-{[5-(methoxymethyl)-1,3,4-oxadiazol-2-yl]amino}-10-methyl-8,16-diazatricyclo[13.3.1.0^2,7]nonadeca-1(19),2,4,6,15,17-hexaen-9-one, TFA salt]", "values": [
      {"measurement": "Ki", "setting": "[1]", "result": 0.69, "unit": "nM"},
      {"measurement": "Ki", "setting": "[2]", "result": 2, "unit": "nM"}
    ]},
    {"smiles": "C[C@@H]1CCC[C@H](N2CCC(c3c(Br)ccc(Cl)c3F)=CC2=O)c2cc(ccn2)-c2ccccc2NC1=O", "note": "[Example 45, (10R,14S)-14-[4-(6-Bromo-3-chloro-2-fluorophenyl)-6-oxo-1,2,3,6-tetrahydropyridin-1-yl]-10-methyl-8,16-diazatricyclo[13.3.1.0^2,7]nonadeca-1(19),2,4,6,15,17-hexaen-9-one, TFA salt]", "values": [
      {"measurement": "Ki", "setting": "[1]", "result": 2.08, "unit": "nM"},
      {"measurement": "Ki", "setting": "[2]", "result": 7, "unit": "nM"}
    ]},
    {"smiles": "C[C@@H]1CCC[C@H](N2CCC(c3c(C#N)ccc(C#N)c3F)=CC2=O)c2cc(ccn2)-c2ccccc2NC1=O", "note": "[Example 46, (10R,14S)-14-[4-(3,6-Dicyano-2-fluorophenyl)-6-oxo-1,2,3,6-tetrahydropyridin-1-yl]-10-methyl-8,16-diazatricyclo[13.3.1.0^2,7]nonadeca-1(19),2,4,6,15,17-hexaen-9-one, TFA salt]", "values": [
      {"measurement": "Ki", "setting": "[1]", "result": 325, "unit": "nM"},
      {"measurement": "Ki", "setting": "[2]", "result": 669, "unit": "nM"}
    ]},
    {"smiles": "C[C@@H]1CCC[C@H](N2CCC(c3cccc(Cl)c3F)=CC2=O)c2cc(ccn2)-c2ccccc2NC1=O", "note": "[Example 47, (10R,14S)-14-[4-(3-Chloro-2-fluorophenyl)-6-oxo-1,2,3,6-tetrahydropyridin-1-yl]-10-methyl-8,16-diazatricyclo[13.3.1.0^2,7]nonadeca-1(19),2,4,6,15,17-hexaen-9-one, TFA salt]", "values": [
      {"measurement": "Ki", "setting": "[1]", "result": 86.3, "unit": "nM"},
      {"measurement": "Ki", "setting": "[2]", "result": 66, "unit": "nM"}
    ]},
    {"smiles": "C[C@@H]1CCC[C@H](N2CCC(c3c(C#N)ccc(Cl)c3F)=CC2=O)c2cc(ccn2)-c2ccccc2NC1=O", "note": "[Example 49, 4-Chloro-3-fluoro-2-{1-[(10R,14S)-10-methyl-9-oxo-8,16-diazatricyclo[13.3.1.0^2,7]nonadeca-1(19),2,4,6,15,17-hexaen-14-yl]-6-oxo-1,2,3,6-tetrahydropyridin-4-yl}benzonitrile, TFA salt]", "values": [
      {"measurement": "Ki", "setting": "[1]", "result": 1.06, "unit": "nM"},
      {"measurement": "Ki", "setting": "[2]", "result": 3, "unit": "nM"}
    ]}
  ]
}
